Reference: patent publication US9592300B2, “Methods of using redox-active surfactants to control polymer interactions” (WISCONSIN ALUMNI RESEARCH FOUNDATION, priority 2005, dated 2017)
Like-named read-outs stand apart in the source and are kept apart here.

Tests used:
pEGFP-N1 = conditions: serum-free cell culture medium;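 also: dynamic light scattering of lipoplexes formed from BFDMA and pEGFP-N1 plasmid (2.4 µg/ml), scattering angles 30° to 110°, autocorrelation functions analysed with CONTIN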
COS-7 cells [1] = system: COS-7 cells
Experimental: Preparation of lipoplexes for Transfection Assays.
Cells were then incubated for 48 hours and cell morphology and relative levels of EGFP expression were characterized using phase contrast and fluorescence microscopy.
For these experiments, cells were incubated with lipoplexes for four hours in serum-free medium, followed by incubation in fresh serum-containing medium (see Materials and Methods Section for complete description of transfection procedures).

pGFP = test: QLS hydrodynamic size of BFDMA/DNA complexes; assay type: physicochemical; conditions: 10 μM BFDMA, 2.4 μg/ml DNA, Opti-MEM, 25° C.
Experimental: (§1) 1) A solution of 100 μM reduced BFDMA was prepared by dissolving BFDMA (solid) in water.
(§2) 2) A solution of 100 μM oxidized BFDMA was prepared as follows: First, a […] reduced BFDMA solution was prepared by dissolving BFDMA (solid) in 1 mM Li2SO4 aqueous solution, and then the solution was oxidized electrochemically. The resultant oxidized BFDMA solution was diluted with water to give a solution of 100 μM oxidized BFDMA.
1) 150 μl of 100 μM reduced/oxidized BFDMA solution was diluted with 150 μl of 24 μg/ml pGFP aqueous solution, and the solution was allowed to stand for 20 min at room temperature. 1.2 ml of Opti-MEM was added to the solution to yield a final BFDMA concentration of 10 μM and a final DNA concentration of 2.4 μg/ml. QLS measurements were made at 25° C. immediately after the samples were prepared.

COS-7 cells [2] = conditions: for concentrations at which maximum gene expression is observed: medium with 10% fetal bovine serum
[3] = QLS hydrodynamic size of BFDMA solutions without DNA; assay type: physicochemical; conditions: 10 μM BFDMA, Opti-MEM, 25° C.
Experimental: as §1, §2
150 μl of 100 μM reduced/oxidized BFDMA solution was diluted with 150 μl of water, followed by the addition of 1.2 ml of Opti-MEM. The final BFDMA concentration was 10 μM. QLS measurements were made at 25° C. immediately after the samples were prepared.

COS-7 cells [4] = test: Live/dead cytotoxicity assay of lipoplexes
[5] = assay type: physicochemical; conditions: for cloud point: 0.1 wt % EHEC, 0.1M Li2SO4
Experimental: Surfactant-ethyl(hydroxylethyl) cellulose (EHEC) interactions were characterized by observing the clouding temperature of solutions of EHEC containing various concentrations of surfactant.
Sample Preparation. Three samples of each solution were prepared to assess reproducibility. […] The EHEC solution was filtered through 0.22 μm GV Millipore filter, placed under vacuum for 30-45 minutes, then bubbled with argon for another 30-45 minutes. This deaeration procedure was performed for all solutions, including solutions of DTAB.
The solutions of polymer, salt, and surfactant were then mixed to form 0.1 wt % EHEC, 0.1M Li2SO4, and the desired concentration of surfactant. These solutions were deaerated three times and bubbled with argon inside airtight containers. These solutions were stored at 25° C. and measured after 3 hours and 1 day.
They were simply filtered, mixed to the desired concentrations, and stored for one day before measurements of cloud points and light scattering were performed.
Cloud Point Measurements. Solution of EHEC and surfactant were immersed in a temperature bath controlled to within 0.1° C. The temperature was increased by 1° C. every 10 minutes and the solutions were visually inspected for clouding. […] The values reported in this study are based on clouding points measured upon increasing the temperature of the solutions.

[6] = Phase behaviour of FS with HM-EHEC; assay type: physicochemical; conditions: 1 wt % HM-EHEC, 10 mM Li2SO4, pH 5
Description: The top layer had low viscosity (similar to that of water) and was mildly cloudy; the bottom layer was yellow and highly viscous, almost gel-like. As the concentration of reduced FS increased, the top layer became more cloudy and the bottom layer became less viscous (up to 5 mmolal). As the concentration of reduced FS was decreased (down to 0.1 mmolal), the top layer cleared and the bottom layer became less viscous. […] The solutions made with oxidized FS were faintly blue and cloudy as the concentration increased (from 0.1 to 0.5 mmolal).

[7] = Critical micelle concentration (CMC) in 0.1M Li2SO4; assay type: physicochemical
[8] = Dynamic light scattering of surfactant micelles (no polymer); assay type: physicochemical; conditions: 0.1M Li2SO4, no polymer, […]° C., center-of-mass diffusion of spheres (200 mmolal DTAB; 25 mmolal reduced FTMA)
[9] = [BFDMA] 6 μM, listed as Ox. BFDMA
[10] = [BFDMA] 8 μM, listed as Ox. BFDMA
[11] = [BFDMA] 10 μM, listed as Ox. BFDMA
[12] = [BFDMA] 20 μM, listed as Ox. BFDMA
[13] = [BFDMA] 60 μM, listed as Ox. BFDMA
[14] = [BFDMA] 6 μM, listed as Red. BFDMA
[15] = [BFDMA] 8 μM, listed as Red. BFDMA
[16] = [BFDMA] 10 μM, listed as Red. BFDMA
[17] = [BFDMA] 20 μM, listed as Red. BFDMA
[18] = [BFDMA] 60 μM, listed as Red. BFDMA

Compound: C[N+](C)(CCCCCCCCCCC[c-]1cccc1)CCCCCCCCCCC[c-]1cccc1.[Br-].[Fe+2].[Fe+2].c1cc[cH-]c1.c1cc[cH-]c1 [oxidized BFDMA, bis(11-ferrocenylundecyl)dimethylammonium bromide]
- Number-Avg Diameter (pEGFP-N1; [BFDMA] 2 μM, 600 ng DNA, listed as Ox. BFDMA): 89 (±40) nm
- Intensity-Avg Diameter (pEGFP-N1; [BFDMA] 2 μM, listed as Ox. BFDMA): 196 (±86) nm
- Intensity-Avg Diameter (pEGFP-N1; [9]): 217 (±58) nm
- Number-Avg Diameter (pEGFP-N1; [9]): 64 (±25) nm
- Intensity-Avg Diameter (pEGFP-N1; [10]): 228 (±100) nm
- Number-Avg Diameter (pEGFP-N1; [10]): 86 (±37) nm
- Intensity-Avg Diameter (pEGFP-N1; [11]): 266 (±212) nm
- Number-Avg Diameter (pEGFP-N1; [11]): 110 (±55) nm
- Number-Avg Diameter (pEGFP-N1; [BFDMA] 20 μM): ca. 610 nm
- Intensity-Avg Diameter (pEGFP-N1; [12]): 1163 (±150) nm
- Number-Avg Diameter (pEGFP-N1; [12]): 611 (±183) nm
- Intensity-Avg Diameter (pEGFP-N1; [13]): 1497 (±340) nm
- Number-Avg Diameter (pEGFP-N1; [13]): 1254 (±512) nm
- EGFP expression (cell transfection) (COS-7 cells [1]; 20 μM lipid, 4 h exposure in serum-free medium, 48 h): relatively high levels
- EGFP gene expression, generally (COS-7 cells [1]; 2-40 μM lipid, 4 h exposure in serum-free medium, 48 h): very low levels
- hydrodynamic size of aggregates w/ DNA (pGFP; time 0 min, listed as ox): 209.6 nm
- hydrodynamic size of aggregates w/ DNA (pGFP; time 120 min, listed as ox): 221.4 nm
- hydrodynamic size of aggregates w/ DNA (pGFP; time 240 min, listed as ox): 297.2 nm
- levels of gene expression versus reduced BFDMA (COS-7 cells [2]; 2 hours exposure, serum-free): dramatically lower
- luciferase expression (COS-7 cells [2]; 12 hour exposure, serum-free, 20 μM): in excess of expression mediated by reduced BFDMA
- concentrations at which maximum gene expression is observed (COS-7 cells [2]; four hours exposure): 40 µM and 60 µM
- hydrodynamic size of aggregates w/o DNA ([3]; time 0 min, listed as ox): 363.4 nm
- hydrodynamic size of aggregates w/o DNA ([3]; time 120 min, listed as ox): 496 nm
- hydrodynamic size of aggregates w/o DNA ([3]; time 240 min, listed as ox): 511 nm
- cytotoxicity relative to DNA alone or commercial controls (COS-7 cells [4]; 2 hours exposure, any concentration evaluated (2 μM to 60 μM), OptiMEM): not cytotoxic
- toxicity (COS-7 cells [4]; 4 hours exposure, e.g. 40 μM and 60 μM): increases at higher concentrations

Compound: O=S(=O)([O-])[O-].[Li+].[Li+] [Li2SO4]
- clouding temperature ([5]; 0.1% (w/w) EHEC, 1M Li2SO4, pH 2.5): less than 6 °C

Compound: C[N+](C)(CCCCCCCCCCC[c-]1cccc1)CCCCCCCCCCC[c-]1cccc1.[Br-].[Fe+2].[Fe+2].c1cc[cH-]c1.c1cc[cH-]c1 [BFDMA, bis(11-ferrocenylundecyl)dimethylammonium bromide]
- transfection activity following electrochemical cycling (EGFP expression) (COS-7 cells [1]; oxidized at 500 mV, then reduced at −44 mV prior to contact with DNA): retains transfection activity
- magnitude of gene expression in presence of serum relative to serum-free medium (COS-7 cells [2]; four hours exposure, 10% fetal bovine serum): approximately one order of magnitude lower

Compound: 11-ferrocenylundecylsulfonate [oxidized FS]
- liquid-liquid phase separation [6]: did not form two coexisting liquid phases

Compound: C[N+](C)(CCCCCCCCCCC[c-]1cccc1)CCCCCCCCCCC[c-]1cccc1.[Br-].[Fe+2].[Fe+2].c1cc[cH-]c1.c1cc[cH-]c1 [reduced BFDMA, bis(11-ferrocenylundecyl)dimethylammonium bromide]
- Number-Avg Diameter (pEGFP-N1; [BFDMA] 2 μM, 600 ng DNA, listed as Red. BFDMA): 158 (±64) nm
- Intensity-Avg Diameter (pEGFP-N1; [BFDMA] 2 μM, listed as Red. BFDMA): 369 (±74) nm
- Intensity-Avg Diameter (pEGFP-N1; [14]): 603 (±262) nm
- Number-Avg Diameter (pEGFP-N1; [14]): 231 (±88) nm
- Intensity-Avg Diameter (pEGFP-N1; [15]): 951 (±504) nm
- Number-Avg Diameter (pEGFP-N1; [15]): 297 (±126) nm
- Intensity-Avg Diameter (pEGFP-N1; [16]): 1118 (±426) nm
- Number-Avg Diameter (pEGFP-N1; [16]): 219 (±126) nm
- Intensity-Avg Diameter (pEGFP-N1; [17]): 2766 (±725) nm
- Number-Avg Diameter (pEGFP-N1; [17]): 1490 (±750) nm
- Intensity-Avg Diameter (pEGFP-N1; [18]): 4777 (±1350) nm
- Number-Avg Diameter (pEGFP-N1; [18]): 1921 (±1220) nm
- EGFP expression (COS-7 cells [1]; 2 μM lipid, 4 h exposure in serum-free medium, 48 h): relatively low levels
- EGFP expression (transfection) (COS-7 cells [1]; 10 μM and 20 μM lipid, 4 h exposure in serum-free medium, 48 h): increased significantly
- EGFP expression (transfection) (COS-7 cells [1]; 40 μM lipid, 4 h exposure in serum-free medium, 48 h): significantly reduced
- cell death by phase contrast microscopy (COS-7 cells [1]; concentrations above 40 μM): Significant cell death
- hydrodynamic size of aggregates w/ DNA (pGFP; time 0 min, listed as red): 689.7 nm
- hydrodynamic size of aggregates w/ DNA (pGFP; time 120 min, listed as red): 2613.9 nm
- hydrodynamic size of aggregates w/ DNA (pGFP; time 240 min, listed as red): 2995.5 nm
- luciferase expression (normalized to total cell protein) (COS-7 cells [2]; 2 hours exposure, serum-free, 2 μM and 40 μM and 60 μM): low
- luciferase expression (normalized to total cell protein) (COS-7 cells [2]; 2 hours exposure, serum-free, 4 μM to 20 μM): significantly higher
- luciferase expression versus Lipofectamine 2000 and TransIT-LT1 (COS-7 cells [2]; four and twelve hours exposure, serum-free, 6 μM to 20 μM): comparable to or measured to be in excess of
- concentrations at which maximum gene expression is observed (COS-7 cells [2]; four hours exposure): 20 µM and 40 µM
- hydrodynamic size of aggregates w/o DNA ([3]; time 0 min, listed as red): 472.8 nm
- hydrodynamic size of aggregates w/o DNA ([3]; time 120 min, listed as red): 1214 nm
- hydrodynamic size of aggregates w/o DNA ([3]; time 240 min, listed as red): 1090.3 nm
- cytotoxicity (COS-7 cells [4]; 2 hours exposure, 2 μM to 10 μM): not cytotoxic
- cytotoxicity (COS-7 cells [4]; 2 hours exposure, 20 μM): increases slightly
- cytotoxicity (COS-7 cells [4]; 2 hours exposure, 40 μM and 60 μM): substantially cytotoxic
- cytotoxicity (COS-7 cells [4]; 12 hours exposure, 6 μM to 10 μM, versus two or four hours): more cytotoxic
- cytotoxicity (COS-7 cells [4]; 12 hours exposure, 20 μM): cytotoxic
- cytotoxicity (COS-7 cells [4]; two or four hours exposure, 20 μM): not substantially cytotoxic

Compound: 11-ferrocenylundecylsulfonate [reduced FS]
- liquid-liquid phase separation [6]: caused a liquid-liquid phase separation

Compound: CCCCCCCCCCCC[N+](C)(C)C.[Br-] [DTAB, dodecyltrimethyl ammonium bromide]
- CMC [7]: 10 mM
- clouding temperature compared to solutions free of DTAB ([5]; 1 mM DTAB): not measurably lowered
- lowering of clouding temperature of EHEC solutions ([5]; 5 mmolal DTAB (from 32° C. to 26° C.)): 6 °C
- cloud point ([5]; 5 mmolal DTAB): 26-27 °C
- cloud point ([5]; DTAB concentrations near its CMC (10 mM)): 14±0.3 °C
- hydrodynamic diameter of micelles [8]: 4 nm
